Data on 11 compounds can be found in ChEMBL document CHEMBL1154800, “TDAE-assisted synthesis of new imidazo[2,1-b]thiazole derivatives as anti-infectious agents” (2010).

Values after ≈ are worked out from the molar mass of the structure shown. Active and inactive are the calls of the source. The calls are words filed in the database; no cut-off is given here.

In assay [1] the test system is Candida tropicalis. Briefly: Antimicrobial activity against Candida tropicalis IP 2031 after 48 hrs by microplate assay. It is filed as functional. The note with it: IP 2031, 48 h.
For assay [2], the system named is Nakaseomyces glabratus. Description: Antimicrobial activity against Candida glabrata ATCC 90030 after 48 hrs by microplate assay. The assay is classed as functional. The following applies: ATCC 90030, 48 h.
Assay [3] deals with Candida albicans. Description: Antimicrobial activity against Candida albicans ATCC 2091 by disk diffusion method. It is filed as functional. A general note: A growth-free zone around the sample is the usual read-out of agar diffusion tests.
For assay [4], the system named is Pichia kudriavzevii. Briefly: Antimicrobial activity against Candida krusei ATCC 6258 by disk diffusion method. It is filed as functional.
Assay [5] concerns Pichia kudriavzevii. Briefly: Antimicrobial activity against Candida krusei ATCC 6258 after 48 hrs by microplate assay. It is filed as functional. The following applies: ATCC 6258, 48 h.
Assay [6] deals with Nakaseomyces glabratus. Description: Antimicrobial activity against Candida glabrata ATCC 90030 by disk diffusion method. The assay is classed as functional.
The test system of assay [7] is Candida tropicalis. Briefly: Antimicrobial activity against Candida tropicalis IP 2031 by disk diffusion method. It is filed as functional.
For assay [8], the system named is Candida albicans. Briefly: Antimicrobial activity against Candida albicans ATCC 2091 after 48 hrs by microplate assay. The assay is classed as functional. The note with it: ATCC 2091, 48 h.
Assay [9] concerns Staphylococcus aureus. Description: Antimicrobial activity against Staphylococcus aureus ATCC 6538 by disk diffusion method. It is filed as functional.
Assay [10] deals with Enterococcus hirae. Briefly: Antimicrobial activity against Enterococcus hirae ATCC 10541 by disk diffusion method. It is filed as functional.
For assay [11], the system named is Escherichia coli. Description: Antimicrobial activity against Escherichia coli ATCC 10536 by disk diffusion method. The assay is classed as functional.
Assay [12] has as its system Pseudomonas aeruginosa. Description: Antimicrobial activity against Pseudomonas aeruginosa ATCC 15442 by disk diffusion method. It is filed as functional.
In assay [13] the test system is Staphylococcus aureus. Description: Antimicrobial activity against Staphylococcus aureus ATCC 6538 assessed as minimum microbial concentration after 24 hrs by microplate assay. The assay is classed as functional.
Assay [14] has as its system Staphylococcus aureus. Briefly: Antimicrobial activity against Staphylococcus aureus ATCC 6538 after 24 hrs by microplate assay. The assay is classed as functional.
Assay [15] concerns Escherichia coli. Description: Antimicrobial activity against Escherichia coli ATCC 10536 after 24 hrs by microplate assay. The assay is classed as functional.
For assay [16], the system named is Nakaseomyces glabratus. Briefly: Antimicrobial activity against Candida glabrata ATCC 90030 assessed as minimum microbial concentration after 48 hrs by microplate assay. The assay is classed as functional.
Assay [17] concerns Pichia kudriavzevii. Briefly: Antimicrobial activity against Candida krusei ATCC 6258 assessed as minimum microbial concentration after 48 hrs by microplate assay. It is filed as functional.
Assay [18] has as its system Candida tropicalis. Briefly: Antimicrobial activity against Candida tropicalis IP 2031 assessed as minimum microbial concentration after 24 hrs by microplate assay. It is filed as functional.
Assay [19] relates to Candida albicans. Briefly: Antimicrobial activity against Candida albicans ATCC 2091 assessed as minimum microbial concentration after 24 hrs by microplate assay. The assay is classed as functional.
The test system of assay [20] is Escherichia coli. Description: Antimicrobial activity against Escherichia coli ATCC 10536 after 24 hrs assessed as minimum microbial concentration by microplate assay. The assay is classed as functional.
Assay [21] deals with Enterococcus hirae. Description: Antimicrobial activity against Enterococcus hirae ATCC 10541 after 24 hrs by microplate assay. The assay is classed as functional, organism-based.
Assay [22] deals with Pseudomonas aeruginosa. Description: Antimicrobial activity against Pseudomonas aeruginosa ATCC 15442 after 24 hrs by microplate assay. The assay is classed as functional, organism-based.

The MIC is the lowest concentration that inhibits growth of the organism. A higher MIC goes with a less susceptible organism. On to `C[C@@H]1[C@H](O)[C@@H](C)/C=C/C=C/C=C/C=C/C=C/C=C/C=C/[C@H](O[C@@H]2O[C@H](C)[C@@H](O)[C@H](N)[C@@H]2O)C[C@@H]2O[C@](O)(C[C@@H](O)C[C@@H](O)[C@H](O)CC[C@@H](O)C[C@@H](O)CC(=O)O[C@H]1C)C[C@H](O)[C@H]2C(=O)O` [AMPHOTERICIN B], for which the MIC with Candida tropicalis [1] came out at 12.5 µg/mL (≈ 13.5 µM); in the assay on Nakaseomyces glabratus [2], 0.31 µg/mL (≈ 0.335 µM); against Pichia kudriavzevii [5] it was 0.62 µg/mL (≈ 0.671 µM); against Candida albicans [8], 0.16 µg/mL (≈ 0.173 µM). Besides, the “diameter of the inhibition zone (DIZ)” value in the assay on Candida albicans [3] worked out at 22 mm; in the assay on Pichia kudriavzevii [4] it was 18 mm; with Nakaseomyces glabratus [6] it was 22 mm; in the assay on Candida tropicalis [7] it was 8 mm.

Regarding `CN1C(=O)C(O)(Cc2nc3sccn3c2[N+](=O)[O-])c2ccccc21` (stereo not drawn), the “diameter of the inhibition zone (DIZ)” value in the assay on Staphylococcus aureus [9], with Candida albicans [3], in the assay on Enterococcus hirae [10], in the assay on Escherichia coli [11], in the assay with Pseudomonas aeruginosa [12] and in the assay with Pichia kudriavzevii [4] was “inactive” throughout. In the assay with Nakaseomyces glabratus [6], the “diameter of the inhibition zone (DIZ)” value is “inactive”. Besides, the MIC with Candida tropicalis [1] stood at 125 µg/mL (≈ 363 µM). For the same compound, in the assay with Candida tropicalis [7], the “diameter of the inhibition zone (DIZ)” value was determined as 12 mm.

In the case of `O=C1Nc2ccccc2C1(O)Cc1nc2sccn2c1[N+](=O)[O-]` (stereo not drawn), the figures for the “diameter of the inhibition zone (DIZ)” value in the assay on Staphylococcus aureus [9], in the assay with Pseudomonas aeruginosa [12] and in the assay with Candida tropicalis [7] were 10 mm, 9 mm and 8 mm, respectively. Besides, the MIC in the assay on Candida tropicalis [1] is 62.5 µg/mL (≈ 189 µM); in the assay with Nakaseomyces glabratus [2] it was over 500 µg/mL; in the assay with Pichia kudriavzevii [5], over 500 µg/mL; in the assay with Staphylococcus aureus [14] (ATCC 6538, 24 h), 500 µg/mL (≈ 1510 µM); against Candida albicans [8], 500 µg/mL (≈ 1510 µM). In the assay on Staphylococcus aureus [13], the Activity was found to be 500 µg/mL. In addition, the “diameter of the inhibition zone (DIZ)” value with Candida albicans [3], with Enterococcus hirae [10], in the assay on Escherichia coli [11], in the assay with Pichia kudriavzevii [4] and with Nakaseomyces glabratus [6] was “inactive” throughout.

Regarding COLISTIN, the minimum inhibitory concentration (MIC) against Staphylococcus aureus [14] amounted to 0.4 µg/mL; with Escherichia coli [15], 8.12 µg/mL.

On to `CCOC(=O)/C=C/c1nc2sccn2c1[N+](=O)[O-]`, for which the “diameter of the inhibition zone (DIZ)” value with Staphylococcus aureus [9], in the assay on Candida albicans [3], in the assay with Enterococcus hirae [10], in the assay with Escherichia coli [11], in the assay on Pseudomonas aeruginosa [12] and in the assay on Pichia kudriavzevii [4] was “inactive” each time. In the assay on Nakaseomyces glabratus [6], the “diameter of the inhibition zone (DIZ)” value was “inactive”. In the assay on Candida tropicalis [1], this compound registered an MIC of 15.6 µg/mL (≈ 58.4 µM). In the assay on Candida tropicalis [7], the “diameter of the inhibition zone (DIZ)” value was determined as 21 mm.

As to `O=[N+]([O-])c1c(CBr)nc2sccn12`, the “diameter of the inhibition zone (DIZ)” value worked out at 18 mm in the assay with Staphylococcus aureus [9]; 17 mm in the assay with Candida albicans [3]; 11 mm with Enterococcus hirae [10]; 9 mm in the assay on Escherichia coli [11]; 11 mm with Pseudomonas aeruginosa [12]; 23 mm in the assay on Pichia kudriavzevii [4]. Besides, the “diameter of the inhibition zone (DIZ)” value in the assay with Nakaseomyces glabratus [6] is reported as 20 mm; in the assay with Candida tropicalis [7], 29 mm. For the same compound, the MIC against Candida tropicalis [1] is 15.6 µg/mL (≈ 59.5 µM); in the assay with Nakaseomyces glabratus [2], 125 µg/mL (≈ 477 µM); in the assay with Pichia kudriavzevii [5] it was 62.5 µg/mL (≈ 238 µM); against Staphylococcus aureus [14] (ATCC 6538, 24 h), 125 µg/mL (≈ 477 µM); against Candida albicans [8], 125 µg/mL (≈ 477 µM). Also, the Activity is 250 µg/mL with Staphylococcus aureus [13]; 250 µg/mL in the assay with Nakaseomyces glabratus [16]; 62.5 µg/mL in the assay on Pichia kudriavzevii [17]; 15.6 µg/mL in the assay on Candida tropicalis [18]; 125 µg/mL in the assay on Candida albicans [19].

Regarding `COC(=O)C(O)(Cc1nc2sccn2c1[N+](=O)[O-])C(F)(F)F` (stereo not drawn), the “diameter of the inhibition zone (DIZ)” value in the assay on Staphylococcus aureus [9], in the assay on Candida albicans [3], in the assay on Enterococcus hirae [10], in the assay on Escherichia coli [11], with Pseudomonas aeruginosa [12] and with Pichia kudriavzevii [4] was “inactive” in each case. Moreover, in the assay with Nakaseomyces glabratus [6], the “diameter of the inhibition zone (DIZ)” value was “inactive”. This compound showed an MIC with Candida tropicalis [1] of 3.9 µg/mL (≈ 11.5 µM). In addition, the “diameter of the inhibition zone (DIZ)” value in the assay on Candida tropicalis [7] worked out at 33 mm.

Turning to `CC(=O)N1C(=O)C(O)(Cc2nc3sccn3c2[N+](=O)[O-])c2ccccc21` (stereo not drawn), the “diameter of the inhibition zone (DIZ)” value is recorded as 16 mm in the assay with Staphylococcus aureus [9] and 14 mm in the assay with Candida tropicalis [7]. Besides, the minimal inhibitory concentration (MIC) against Candida tropicalis [1] turned out to be 14 µg/mL (≈ 37.6 µM); against Staphylococcus aureus [14] (ATCC 6538, 24 h) it was 31.2 µg/mL (≈ 83.8 µM). The Activity in the assay with Staphylococcus aureus [13] was found to be 62.5 µg/mL. In addition, the “diameter of the inhibition zone (DIZ)” value in the assay on Candida albicans [3], in the assay with Enterococcus hirae [10], with Escherichia coli [11], in the assay on Pseudomonas aeruginosa [12], in the assay on Pichia kudriavzevii [4] and in the assay with Nakaseomyces glabratus [6] was “inactive” in each case.

Consider `Cc1nc2sccn2c1[N+](=O)[O-]`, for which the “diameter of the inhibition zone (DIZ)” value in the assay with Staphylococcus aureus [9], with Candida albicans [3], in the assay on Enterococcus hirae [10], with Escherichia coli [11], in the assay with Pseudomonas aeruginosa [12] and in the assay with Pichia kudriavzevii [4] was “inactive” throughout. Also, the “diameter of the inhibition zone (DIZ)” value in the assay with Nakaseomyces glabratus [6] is “inactive”. Also, the MIC in the assay on Candida tropicalis [1] was 31.2 µg/mL (≈ 170 µM); with Nakaseomyces glabratus [2] it was over 500 µg/mL; against Pichia kudriavzevii [5], over 500 µg/mL; against Candida albicans [8] it was over 500 µg/mL. Further, the “diameter of the inhibition zone (DIZ)” value in the assay with Candida tropicalis [7] is 8 mm.

For the compound `O=[N+]([O-])c1c(CCl)nc2sccn12`, the “diameter of the inhibition zone (DIZ)” value in the assay on Staphylococcus aureus [9] is recorded as 18 mm; with Candida albicans [3] it was 16 mm; in the assay with Enterococcus hirae [10], 11 mm; in the assay on Escherichia coli [11], 14 mm; in the assay with Pseudomonas aeruginosa [12], 11 mm; in the assay with Pichia kudriavzevii [4], 20 mm. Moreover, the entries for the “diameter of the inhibition zone (DIZ)” value in the assay on Nakaseomyces glabratus [6] and with Candida tropicalis [7] were 18 mm and 25 mm, respectively. In addition, the minimal inhibitory concentration (MIC) against Candida tropicalis [1] was 15.6 µg/mL (≈ 71.7 µM); in the assay on Nakaseomyces glabratus [2] it was 62.5 µg/mL (≈ 287 µM); with Pichia kudriavzevii [5], 62.5 µg/mL (≈ 287 µM); in the assay with Staphylococcus aureus [14] (ATCC 6538, 24 h) it was 125 µg/mL (≈ 574 µM); against Candida albicans [8], 62.5 µg/mL (≈ 287 µM); against Escherichia coli [15] (ATCC 10536, 24 h), 125 µg/mL (≈ 574 µM). Besides, the Activity amounted to 250 µg/mL in the assay on Staphylococcus aureus [13]; 250 µg/mL with Escherichia coli [20]; 62.5 µg/mL with Nakaseomyces glabratus [16]; 62.5 µg/mL with Pichia kudriavzevii [17]; 15.6 µg/mL with Candida tropicalis [18]; 62.5 µg/mL with Candida albicans [19].

Regarding GENTAMICIN, the inhibition zone (IZ) with Staphylococcus aureus [9] worked out at 20 mm; with Enterococcus hirae [10], 18 mm; in the assay on Escherichia coli [11], 19 mm; in the assay with Pseudomonas aeruginosa [12] it was 19 mm. Besides, the values for the MIC with Enterococcus hirae [21] and against Pseudomonas aeruginosa [22] were 25 µg/mL and 8.12 µg/mL, respectively.
